Results taken from ChEMBL document CHEMBL1144287, “Synthesis and antifungal activity of noble 5-arylamino- and 6-arylthio-4,7-dioxobenzoselenazoles” (2005).
In brackets after ≈: the same amount, converted by molar mass.

What was measured:
Assay type in all cases: functional
Aspergillus flavus = experiment: Minimum inhibitory concentration was measured against Aspergillus flavus KCCM 11899 using modified Sabouraud dextrose broth; (a)
Pichia kudriavzevii = experiment: Minimum inhibitory concentration was measured against Candida krusei ATCC 749 using modified Sabouraud dextrose broth; (a)
Candida albicans = experiment: Minimum inhibitory concentration was measured against Candida albicans ATCC 10231 using modified Sabouraud dextrose broth; (a)
Aspergillus niger = experiment: Minimum inhibitory concentration was measured against Aspergillus niger KCTC 1231 using modified Sabouraud dextrose broth; (a)
Candida tropicalis = experiment: Minimum inhibitory concentration was measured against Candida tropicalis ATCC 28775 using modified Sabouraud dextrose broth; (a)

| Compound | MIC (Aspergillus flavus) [µg/mL] | MIC (Pichia kudriavzevii) [µg/mL] | MIC (Candida albicans) [µg/mL] | MIC (Aspergillus niger) [µg/mL] | MIC (Candida tropicalis) [µg/mL] |
| --- | --- | --- | --- | --- | --- |
| Cc1nc2c([se]1)C(=O)C=C(Nc1ccc(C(F)(F)F)cc1)C2=O | 25 (≈ 64.9 µM) | 3.2 (≈ 8.31 µM) | 25 (≈ 64.9 µM) | 12.5 (≈ 32.5 µM) | 3.2 (≈ 8.31 µM) |
| Cc1nc2c([se]1)C(=O)C=C(Nc1ccc(Br)cc1)C2=O | 50 (≈ 126 µM) | 50 (≈ 126 µM) | 12.5 (≈ 31.6 µM) | 25 (≈ 63.1 µM) | 50 (≈ 126 µM) |
| Cc1nc2c([se]1)C(=O)C=C(Nc1ccc(Cl)cc1)C2=O | 12.5 (≈ 35.5 µM) | 12.5 (≈ 35.5 µM) | 12.5 (≈ 35.5 µM) | 12.5 (≈ 35.5 µM) | 12.5 (≈ 35.5 µM) |
| COC1=CC(=O)c2[se]c(C)nc2C1=O | 50 (≈ 195 µM) | 25 (≈ 97.6 µM) | 50 (≈ 195 µM) | 25 (≈ 97.6 µM) | 12.5 (≈ 48.8 µM) |
| Cc1nc2c([se]1)C(=O)C=C(Nc1ccc(F)cc1)C2=O | 12.5 (≈ 37.3 µM) | 6.3 (≈ 18.8 µM) | 6.3 (≈ 18.8 µM) | 6.3 (≈ 18.8 µM) | 6.3 (≈ 18.8 µM) |
| COC1=C(Sc2ccc(F)cc2)C(=O)c2[se]c(C)nc2C1=O | 50 (≈ 131 µM) | 25 (≈ 65.4 µM) | 25 (≈ 65.4 µM) | 50 (≈ 131 µM) | 3.2 (≈ 8.37 µM) |
| Cc1nc2c([se]1)C(=O)C=C(Nc1ccc(I)cc1)C2=O | 25 (≈ 56.4 µM) | 25 (≈ 56.4 µM) | 25 (≈ 56.4 µM) | 25 (≈ 56.4 µM) | 25 (≈ 56.4 µM) |
| Cc1nc2c([se]1)C(=O)C=C(Nc1ccccc1)C2=O | 6.3 (≈ 19.9 µM) | 6.3 (≈ 19.9 µM) | 6.3 (≈ 19.9 µM) | 6.3 (≈ 19.9 µM) | 6.3 (≈ 19.9 µM) |
| Cc1ccc(NC2=CC(=O)c3[se]c(C)nc3C2=O)cc1 | 12.5 (≈ 37.7 µM) | 25 (≈ 75.5 µM) | 6.3 (≈ 19 µM) | 6.3 (≈ 19 µM) | 25 (≈ 75.5 µM) |
| COC1=C(Sc2ccc(C)cc2)C(=O)c2[se]c(C)nc2C1=O | 50 (≈ 132 µM) | 25 (≈ 66.1 µM) | 12.5 (≈ 33 µM) | 25 (≈ 66.1 µM) | 6.3 (≈ 16.7 µM) |
| Cc1nc2c([se]1)C(=O)C=C(Nc1cccc(F)c1)C2=O | 12.5 (≈ 37.3 µM) | 6.3 (≈ 18.8 µM) | 12.5 (≈ 37.3 µM) | 12.5 (≈ 37.3 µM) | 3.2 (≈ 9.55 µM) |
| COC1=C(Sc2ccccc2)C(=O)c2[se]c(C)nc2C1=O | 12.5 (≈ 34.3 µM) | 6.3 (≈ 17.3 µM) | 6.3 (≈ 17.3 µM) | 12.5 (≈ 34.3 µM) | 6.3 (≈ 17.3 µM) |
| Nc1nc(=O)[nH]cc1F [FLUCYTOSINE] | 50 (≈ 387 µM) | 50 (≈ 387 µM) | 12.5 (≈ 96.8 µM) | 12.5 (≈ 96.8 µM) | 12.5 (≈ 96.8 µM) |
| COC1=C(Sc2ccc([N+](=O)[O-])cc2)C(=O)c2[se]c(C)nc2C1=O | 12.5 (≈ 30.5 µM) | 25 (≈ 61.1 µM) | 3.2 (≈ 7.82 µM) | 50 (≈ 122 µM) | 1.6 (≈ 3.91 µM) |
| Cc1nc2c([se]1)C(=O)C=C(Nc1cc(Cl)cc(Cl)c1)C2=O | 12.5 (≈ 32.4 µM) | 25 (≈ 64.8 µM) | 1.6 (≈ 4.14 µM) | 12.5 (≈ 32.4 µM) | 3.2 (≈ 8.29 µM) |
| COC1=C(Sc2ccc(OC)cc2)C(=O)c2[se]c(C)nc2C1=O | 25 (≈ 63.4 µM) | 12.5 (≈ 31.7 µM) | 25 (≈ 63.4 µM) | 12.5 (≈ 31.7 µM) | 12.5 (≈ 31.7 µM) |
| COC1=C(Sc2ccc(Cl)cc2)C(=O)c2[se]c(C)nc2C1=O | 25 (≈ 62.7 µM) | 25 (≈ 62.7 µM) | 25 (≈ 62.7 µM) | 25 (≈ 62.7 µM) | 12.5 (≈ 31.3 µM) |
| COc1ccc(NC2=CC(=O)c3[se]c(C)nc3C2=O)cc1 | 12.5 (≈ 36 µM) | 12.5 (≈ 36 µM) | 12.5 (≈ 36 µM) | 12.5 (≈ 36 µM) | 12.5 (≈ 36 µM) |
| COC1=C(Sc2ccc(F)c(F)c2)C(=O)c2[se]c(C)nc2C1=O | 25 (≈ 62.5 µM) | 6.3 (≈ 15.7 µM) | 12.5 (≈ 31.2 µM) | 25 (≈ 62.5 µM) | 6.3 (≈ 15.7 µM) |
